Measurements reported in BindingDB's records for patent US20240174621 (Hoffmann-La Roche, 2024).

Key:
Experiment in all cases: Kinase Assay
[1] = molecular target: RAF proto-oncogene serine/threonine-protein kinase (Homo sapiens, UniProt P04049)
From the text: (§1) The assay is not in detail.

[2] = molecular target: Serine/threonine-protein kinase B-raf (Homo sapiens, UniProt P15056)
From the text: as §1

[3] = molecular target: Serine/threonine-protein kinase B-raf [V600E] (Homo sapiens, UniProt P15056, V600E)
Serine/threonine-protein kinase B-raf [V600E], sequence (P15056 2-766 V600E limits assumed): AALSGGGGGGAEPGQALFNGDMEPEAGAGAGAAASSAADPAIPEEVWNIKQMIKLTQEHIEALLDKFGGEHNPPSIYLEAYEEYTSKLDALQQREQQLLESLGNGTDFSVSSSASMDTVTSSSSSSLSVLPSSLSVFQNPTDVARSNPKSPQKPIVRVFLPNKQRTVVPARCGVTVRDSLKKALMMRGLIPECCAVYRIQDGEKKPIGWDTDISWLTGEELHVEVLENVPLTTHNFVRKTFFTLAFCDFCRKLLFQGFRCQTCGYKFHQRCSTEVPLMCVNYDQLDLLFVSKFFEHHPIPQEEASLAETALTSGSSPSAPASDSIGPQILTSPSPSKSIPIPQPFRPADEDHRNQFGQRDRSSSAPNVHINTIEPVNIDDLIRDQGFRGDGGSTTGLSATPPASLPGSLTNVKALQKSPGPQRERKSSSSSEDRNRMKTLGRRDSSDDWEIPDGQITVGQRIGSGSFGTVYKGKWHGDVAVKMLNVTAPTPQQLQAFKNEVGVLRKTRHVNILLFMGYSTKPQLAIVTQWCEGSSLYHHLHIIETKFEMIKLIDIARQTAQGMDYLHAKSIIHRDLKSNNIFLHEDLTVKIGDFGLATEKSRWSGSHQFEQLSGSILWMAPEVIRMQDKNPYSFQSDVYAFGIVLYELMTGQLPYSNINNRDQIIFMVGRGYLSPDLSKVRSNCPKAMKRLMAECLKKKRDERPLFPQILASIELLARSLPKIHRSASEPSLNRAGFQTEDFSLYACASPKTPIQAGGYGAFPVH
From the text: as §1

[4] = molecular target: Tyrosine-protein kinase CSK (Homo sapiens, UniProt P41240)
Tyrosine-protein kinase CSK, sequence (P41240 whole entry): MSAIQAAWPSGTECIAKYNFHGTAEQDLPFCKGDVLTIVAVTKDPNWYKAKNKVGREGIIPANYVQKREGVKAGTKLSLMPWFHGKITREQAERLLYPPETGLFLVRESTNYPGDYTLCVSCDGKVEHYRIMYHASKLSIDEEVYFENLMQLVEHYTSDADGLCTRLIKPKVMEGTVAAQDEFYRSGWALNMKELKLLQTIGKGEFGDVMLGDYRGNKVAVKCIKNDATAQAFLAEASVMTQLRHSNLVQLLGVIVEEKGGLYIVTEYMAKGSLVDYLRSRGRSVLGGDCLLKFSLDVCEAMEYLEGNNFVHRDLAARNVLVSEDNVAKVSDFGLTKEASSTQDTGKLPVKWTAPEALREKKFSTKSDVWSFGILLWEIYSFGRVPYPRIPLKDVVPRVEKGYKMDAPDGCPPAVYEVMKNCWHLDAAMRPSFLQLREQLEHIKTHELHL
From the text: as §1

[5] = molecular target: Tyrosine-protein kinase Lck (Homo sapiens, UniProt P06239)
Tyrosine-protein kinase Lck, sequence (P06239 whole entry): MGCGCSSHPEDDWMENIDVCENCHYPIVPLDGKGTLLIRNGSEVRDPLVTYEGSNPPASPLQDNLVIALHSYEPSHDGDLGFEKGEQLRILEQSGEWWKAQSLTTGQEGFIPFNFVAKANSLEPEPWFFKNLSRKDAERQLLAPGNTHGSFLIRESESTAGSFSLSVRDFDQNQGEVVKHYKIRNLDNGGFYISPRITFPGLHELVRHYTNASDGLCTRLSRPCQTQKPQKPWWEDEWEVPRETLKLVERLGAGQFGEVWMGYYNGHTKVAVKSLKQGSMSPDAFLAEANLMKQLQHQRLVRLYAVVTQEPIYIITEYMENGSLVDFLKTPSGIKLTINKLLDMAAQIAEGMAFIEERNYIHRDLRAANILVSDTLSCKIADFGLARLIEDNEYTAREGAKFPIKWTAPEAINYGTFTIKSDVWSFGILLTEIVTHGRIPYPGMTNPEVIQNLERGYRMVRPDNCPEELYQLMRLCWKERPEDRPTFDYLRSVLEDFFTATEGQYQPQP
From the text: as §1

RAF proto-oncogene serine/threonine-protein kinase, sequence (P04049 whole entry): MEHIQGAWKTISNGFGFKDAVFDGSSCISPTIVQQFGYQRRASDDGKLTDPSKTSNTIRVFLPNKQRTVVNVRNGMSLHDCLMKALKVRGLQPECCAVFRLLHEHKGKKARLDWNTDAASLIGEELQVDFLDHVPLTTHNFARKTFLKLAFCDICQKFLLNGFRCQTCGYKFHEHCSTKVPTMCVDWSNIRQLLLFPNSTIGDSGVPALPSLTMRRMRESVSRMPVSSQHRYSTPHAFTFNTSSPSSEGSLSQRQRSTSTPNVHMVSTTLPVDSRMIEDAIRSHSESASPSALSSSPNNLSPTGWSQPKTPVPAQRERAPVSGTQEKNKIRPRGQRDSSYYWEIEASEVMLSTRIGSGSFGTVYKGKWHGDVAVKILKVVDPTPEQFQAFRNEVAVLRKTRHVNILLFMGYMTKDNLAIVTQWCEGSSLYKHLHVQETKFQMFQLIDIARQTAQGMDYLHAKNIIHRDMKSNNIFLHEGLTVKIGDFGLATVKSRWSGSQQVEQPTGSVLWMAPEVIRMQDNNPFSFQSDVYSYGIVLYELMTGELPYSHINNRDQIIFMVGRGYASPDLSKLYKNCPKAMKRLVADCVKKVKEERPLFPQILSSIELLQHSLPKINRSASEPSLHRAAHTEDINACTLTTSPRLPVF
Serine/threonine-protein kinase B-raf, sequence (P15056 whole entry): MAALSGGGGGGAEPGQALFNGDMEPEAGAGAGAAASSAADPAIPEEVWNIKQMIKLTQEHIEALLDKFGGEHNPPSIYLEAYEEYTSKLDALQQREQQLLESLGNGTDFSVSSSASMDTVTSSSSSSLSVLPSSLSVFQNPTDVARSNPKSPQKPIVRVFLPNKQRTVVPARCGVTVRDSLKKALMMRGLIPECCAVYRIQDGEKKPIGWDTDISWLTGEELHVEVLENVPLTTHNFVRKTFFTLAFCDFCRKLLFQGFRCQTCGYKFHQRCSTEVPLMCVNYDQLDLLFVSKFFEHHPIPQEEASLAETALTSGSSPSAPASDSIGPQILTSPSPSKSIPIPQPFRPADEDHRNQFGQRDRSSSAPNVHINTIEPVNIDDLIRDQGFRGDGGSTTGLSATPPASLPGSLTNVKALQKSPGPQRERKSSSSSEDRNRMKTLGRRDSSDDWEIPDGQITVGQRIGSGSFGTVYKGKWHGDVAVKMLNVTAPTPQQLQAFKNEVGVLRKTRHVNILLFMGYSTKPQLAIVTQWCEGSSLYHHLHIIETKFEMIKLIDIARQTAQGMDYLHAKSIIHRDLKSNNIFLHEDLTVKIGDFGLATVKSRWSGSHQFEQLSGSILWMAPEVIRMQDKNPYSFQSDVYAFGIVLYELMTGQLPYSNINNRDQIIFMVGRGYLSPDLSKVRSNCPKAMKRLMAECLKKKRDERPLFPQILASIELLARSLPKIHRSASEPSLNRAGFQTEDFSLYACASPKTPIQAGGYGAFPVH

Cn1cnc2ccc(Oc3c(Cl)ccc(NS(=O)(=O)N4CCCC4)c3C#N)cc2c1=O [US20240174621, Example AR-31]
Kd [1]: 190 nM | Kd [2]: 45.9 nM | Kd [3]: 119 nM | Kd [4]: 1210 nM | Kd [5]: 12000 nM

CN(C)S(=O)(=O)Nc1ccc(Cl)c(Oc2ccc3ncn(C)c(=O)c3c2)c1C#N [US20240174621, Example AR-30]
Kd [1]: 822 nM | Kd [2]: 174 nM | Kd [3]: 504 nM | Kd [4]: 8010 nM | Kd [5]: 10400 nM
